pIC50: −log10 of the molar value.
What follows are molecules tested against T1, CCR2 (Homo sapiens, UniProt P41597) (assay: CCR2 calcium activity assay on FLIPR Tetra in HEK-Gqi5 cells stably expressing CCR2).
T1 construct: expressed in transfected cells
T1 sequence (P41597 whole entry, species assumed): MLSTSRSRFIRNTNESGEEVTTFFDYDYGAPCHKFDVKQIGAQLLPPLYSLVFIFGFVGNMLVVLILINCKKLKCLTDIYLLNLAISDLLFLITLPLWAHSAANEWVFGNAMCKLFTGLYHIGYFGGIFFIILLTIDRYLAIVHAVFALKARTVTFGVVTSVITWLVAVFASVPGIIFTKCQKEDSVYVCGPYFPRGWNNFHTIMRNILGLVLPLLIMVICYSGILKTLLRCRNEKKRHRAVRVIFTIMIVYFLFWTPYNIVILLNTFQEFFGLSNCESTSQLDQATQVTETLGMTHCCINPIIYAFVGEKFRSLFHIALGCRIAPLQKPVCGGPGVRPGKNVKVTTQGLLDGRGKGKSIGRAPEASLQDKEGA
Format: cell-based
With Cn1sc(=O)c2cc(S(=O)(=O)Nc3cc(Cl)c(Cl)cc3NS(=O)(=O)c3cccs3)ccc21 [N-{4,5-dichloro-2-[(2-thienylsulfonyl)amino]phenyl}-1-methyl-3-oxo-1,3-dihydro-2,1-benzisothiazole-5-sulfonamide] the “CCR2 % ANTAG” value was 99% and the pIC50 was 6.44.
Cc1cc(NS(=O)(=O)c2ccc3c(c2)c(=O)sn3C)c(NS(=O)(=O)c2cccs2)cc1C [N-{4,5-dimethyl-2-[(2-thienylsulfonyl)amino]phenyl}-1-methyl-3-oxo-1,3-dihydro-2,1-benzisothiazole-5-sulfonamide] was tested, and the “CCR2 % ANTAG” value was 91% and the pIC50 was 5.66.
With CN(C)c1ccc(NS(=O)(=O)c2ccc3c(c2)c(=O)sn3C)c(NS(=O)(=O)c2cccs2)c1 [N-{4-(dimethylamino)-2-[(2-thienylsulfonyl)amino]phenyl}-1-methyl-3-oxo-1,3-dihydro-2,1-benzisothiazole-5-sulfonamide] the “CCR2 % ANTAG” value was 78% and the pIC50 was 5.91.
With Cn1sc(=O)c2cc(S(=O)(=O)Nc3cc(C(F)(F)F)c(Cl)cc3NS(=O)(=O)c3cccs3)ccc21 [N-{4-chloro-2-[(2-thienylsulfonyl)amino]-5-(trifluoromethyl)phenyl}-1-methyl-3-oxo-1,3-dihydro-2,1-benzisothiazole-5-sulfonamide] the “CCR2 % ANTAG” value was 87% and the pIC50 was 6.28.
With Cn1sc(=O)c2cc(S(=O)(=O)Nc3ccc(Cl)cc3NS(=O)(=O)c3cccs3)ccc21 [N-{4-chloro-2-[(2-thienylsulfonyl)amino]phenyl}-1-methyl-3-oxo-1,3-dihydro-2,1-benzisothiazole-5-sulfonamide] the “CCR2 % ANTAG” value was 102% and the pIC50 was 6.41.
In the case of Cc1cc(NS(=O)(=O)c2ccc3c(c2)c(=O)sn3C)c(NS(=O)(=O)c2cccs2)cc1Cl [N-{4-chloro-5-methyl-2-[(2-thienylsulfonyl)amino]phenyl}-1-methyl-3-oxo-1,3-dihydro-2,1-benzisothiazole-5-sulfonamide], the “CCR2 % ANTAG” value was 75% and the pIC50 was 6.51.
In the case of Cn1sc(=O)c2cc(S(=O)(=O)Nc3ccc(C#N)cc3NS(=O)(=O)c3cccs3)ccc21 [N-{4-cyano-2-[(2-thienylsulfonyl)amino]phenyl}-1-methyl-3-oxo-1,3-dihydro-2,1-benzisothiazole-5-sulfonamide], the “CCR2 % ANTAG” value was 31%.
In the case of CC(C)c1ccc(NS(=O)(=O)c2ccc3c(c2)c(=O)sn3C)c(NS(=O)(=O)c2cccs2)c1 [N-{4-isopropyl-2-[(2-thienylsulfonyl)amino]phenyl}-1-methyl-3-oxo-1,3-dihydro-2,1-benzisothiazole-5-sulfonamide], the “CCR2 % ANTAG” value was 87% and the pIC50 was 6.05.
COc1ccc(NS(=O)(=O)c2ccc3c(c2)c(=O)sn3C)c(NS(=O)(=O)c2cccs2)c1 [N-{4-methoxy-2-[(2-thienylsulfonyl)amino]phenyl}-1-methyl-3-oxo-1,3-dihydro-2,1-benzisothiazole-5-sulfonamide] was tested, and the “CCR2 % ANTAG” value was 60% and the pIC50 was 5.89.
Cn1sc(=O)c2cc(S(=O)(=O)Nc3cc(Br)ccc3NS(=O)(=O)c3cccs3)ccc21 [N-{5-bromo-2-[(2-thienylsulfonyl)amino]phenyl}-1-methyl-3-oxo-1,3-dihydro-2,1-benzisothiazole-5-sulfonamide] was tested, and the “CCR2 % ANTAG” value was 100% and the pIC50 was 6.27.
Cn1sc(=O)c2cc(S(=O)(=O)Nc3cc(Cl)ccc3NCc3cccs3)ccc21 [N-{5-chloro-2-[(2-thienylmethyl)amino]phenyl}-1-methyl-3-oxo-1,3-dihydro-2,1-benzisothiazole-5-sulfonamide] was tested, and the “CCR2 % ANTAG” value was 83% and the pIC50 was 5.96.
For Cn1sc(=O)c2cc(C(=O)Nc3cc(Cl)ccc3NS(=O)(=O)c3cccs3)ccc21 [N-{5-chloro-2-[(2-thienylsulfonyl)amino]phenyl}-1-methyl-3-oxo-1,3-dihydro-2,1-benzisothiazole-5-carboxamide], the “CCR2 % ANTAG” value was 99%.
For Cn1sc(=O)c2cc(S(=O)(=O)Nc3cc(Cl)ccc3NS(=O)(=O)c3cccs3)ccc21 [N-{5-chloro-2-[(2-thienylsulfonyl)amino]phenyl}-1-methyl-3-oxo-1,3-dihydro-2,1-benzisothiazole-5-sulfonamide], the “CCR2 % ANTAG” value was 98% and the pIC50 was 6.63.
In the case of Cn1sc(=O)c2cc(S(=O)(=O)Nc3cc(Cl)cnc3NS(=O)(=O)c3cccs3)ccc21 [N-{5-chloro-2-[(2-thienylsulfonyl)amino]pyridin-3-yl}-1-methyl-3-oxo-1,3-dihydro-2,1-benzisothiazole-5-sulfonamide], the “CCR2 % ANTAG” value was 48% and the pIC50 was 6.00.
With Cn1sc(=O)c2cc(S(=O)(=O)Nc3cc(Cl)cnc3C(=O)N3CCC(=O)CC3)ccc21 [N-{5-chloro-2-[(4-oxopiperidin-1-yl)carbonyl]pyridin-3-yl}-1-methyl-3-oxo-1,3-dihydro-2,1-benzisothiazole-5-sulfonamide] the “CCR2 % ANTAG” value was 58%.
In the case of Cc1cc(NS(=O)(=O)c2cccs2)c(NS(=O)(=O)c2ccc3c(c2)c(=O)sn3C)cc1Cl [N-{5-chloro-4-methyl-2-[(2-thienylsulfonyl)amino]phenyl}-1-methyl-3-oxo-1,3-dihydro-2,1-benzisothiazole-5-sulfonamide], the “CCR2 % ANTAG” value was 91% and the pIC50 was 6.27.
With Cn1sc(=O)c2cc(S(=O)(=O)Nc3cc(C#N)ccc3NS(=O)(=O)c3cccs3)ccc21 [N-{5-cyano-2-[(2-thienylsulfonyl)amino]phenyl}-1-methyl-3-oxo-1,3-dihydro-2,1-benzisothiazole-5-sulfonamide] the “CCR2 % ANTAG” value was 59% and the pIC50 was 5.57.
In the case of CCc1ccc(NS(=O)(=O)c2cccs2)c(NS(=O)(=O)c2ccc3c(c2)c(=O)sn3C)c1 [N-{5-ethyl-2-[(2-thienylsulfonyl)amino]phenyl}-1-methyl-3-oxo-1,3-dihydro-2,1-benzisothiazole-5-sulfonamide], the “CCR2 % ANTAG” value was 94% and the pIC50 was 5.71.
CC(C)c1ccc(NS(=O)(=O)c2cccs2)c(NS(=O)(=O)c2ccc3c(c2)c(=O)sn3C)c1 [N-{5-isopropyl-2-[(2-thienylsulfonyl)amino]phenyl}-1-methyl-3-oxo-1,3-dihydro-2,1-benzisothiazole-5-sulfonamide] was tested, and the “CCR2 % ANTAG” value was 85% and the pIC50 was 6.37.
With COc1ccc(NS(=O)(=O)c2cccs2)c(NS(=O)(=O)c2ccc3c(c2)c(=O)sn3C)c1 [N-{5-methoxy-2-[(2-thienylsulfonyl)amino]phenyl}-1-methyl-3-oxo-1,3-dihydro-2,1-benzisothiazole-5-sulfonamide] the “CCR2 % ANTAG” value was 104% and the pIC50 was 5.85.
COC(=O)c1ccc(NS(=O)(=O)c2cccs2)c(NS(=O)(=O)c2ccc3c(c2)c(=O)sn3C)c1 [methyl 3-{[(1-methyl-3-oxo-1,3-dihydro-2,1-benzisothiazol-5-yl)sulfonyl]amino}-4-[(2-thienylsulfonyl)amino]benzoate] was tested, and the “CCR2 % ANTAG” value was 76% and the pIC50 was 5.62.
With COC(=O)c1ccc(NS(=O)(=O)c2ccc3c(c2)c(=O)sn3C)c(NS(=O)(=O)c2cccs2)c1 [methyl 4-{[(1-methyl-3-oxo-1,3-dihydro-2,1-benzisothiazol-5-yl)sulfonyl]amino}-3-[(2-thienylsulfonyl)amino]benzoate] the “CCR2 % ANTAG” value was 0% and the pIC50 was under 5.08.
For “N,N-dimethyl-N-(4-{[(1-methyl-3-oxo-1,3-dihydro-2,1-benzisothiazol-5-yl)carbonyl]amino}benzyl)tetrahydro-2H-pyran-4-aminium”, the “CCR2 % ANTAG” value was 85% and the pIC50 was 5.93.

Source: US8524745B2 (Allergan, Inc., priority 2011, dated 2013)
